How the values were obtained:
[1] = system: xenobiotic responsive element (XRE); assay: Evaluation of ability to trigger a foreign body reaction using XRE-NLuc::HaCaT reporter cells (NLuc luminescence per viable cell); assay type: cell-based, human
Method: First, XRE-NLuc::HaCaT cells were suspended in a DMEM medium at the density of 1×10^5 cell/mL, and 100 μL of the thus obtained suspension was added to each well of white 96 well plates (Thermo Fisher Scientific, MA, U.S.A.; Catalogue No.: 136102) so that the number of the cells in each well was 10,000 cells/well. In accordance with a conventional method, the cells were incubated at 37° C., 5% CO2 for 24 hours. Thereafter, the DMEM medium was removed, and 100 μL of a new DMEM medium containing FICZ (6-Formylindolo[3,2-b]carbazole; CAS RN: 172922-91-7) as a test sample at a predetermined concentration was added, followed by further incubation for 24 hours at 37° C., 5% CO2. FICZ is known as a substance that triggers a foreign body reaction in which XRE is involved. Meanwhile, negative controls were prepared by adding 100 μL of a DMEM medium containing no FICZ instead of the DMEM medium containing FICZ, which were also incubated for 24 hours at 37° C., 5% CO2.
After the above-described incubation for 24 hours, the number of cells in each well was counted by a colorimetric method based on the degradation of tetrazolium salt (WST-1) by mitochondrial dehydrogenase in viable cells. Specifically, 3 μL of Premix WST-1 (Product Name “Premix WST-1 Cell Proliferation Assay System”; Takara Bio Inc., Shiga, Japan; Catalogue No.: MK400) was added to each well of 96 well plates, and then the cells were cultured for 1 hour at 37° C., 5% CO2. Thereafter, 93 μL of cell culture supernatant was removed from each well to measure the absorbance of the supernatant in each well. The removed supernatants were transferred to transparent 96 well plates, and then the absorbance at 450 nm (A450) and, as a reference wavelength, the absorbance at 670 nm (A670) were measured using iMark microplate reader (Bio-Rad; Catalogue No.: 168-1130JA). A value (A450-A670) was obtained by subtracting the absorbance at 670 nm (A670) from the absorbance at 450 nm (A450). The relative viable cell count (%) was expressed as a relative value with the value (A450-A670) obtained for the negative control as 100%.
Meanwhile, the expression level of the reporter protein was measured using samples left on the white 96-well plates after removing the supernatants for the viable cell count measurement. Briefly, 7 μL of Nano-Glo Luciferase Assay System (Promega; Catalogue No.: N110) was added to each well of the white 96-well plate. After 3 mins, the luminescence intensity obtained from the reporter protein produced by XRE-NLuc::HaCaT cells in each well was measured using GloMax Navigator Microplate Luminometer (Promega; Catalogue No.: GM2000). The obtained luminescence intensities were divided by the relative viable cell counts obtained by the above-described colorimetric method to obtain the expression level of the reporter protein (luminescence intensity) per unit number of viable cells.
In FIG. 3, the luminescence intensity per unit number of viable cells obtained from XRE-NLuc::HaCaT cells incubated with each of the DMEM medium containing FICZ at different concentrations was shown as a relative value, with the luminescence intensity per unit number of viable cells obtained for the negative control set to 1. […] In the figure, “*” and “**” indicate statistically significant differences (p<0.05 and p<0.01, respectively) from the negative control (“FICZ Concentration 0 nM” in FIG. 3).
The ability of each test sample to trigger a foreign body reaction was evaluated using XRE-NLuc::HaCaT cells in the same manner as in Experiment 1-2, except that I3C (Indole-3-carbinol, CAS RN: 700-06-1), ITE (2-(1′H-indole-3′-carbonyl)-thiazole-4-carboxylic acid methyl ester, CAS RN: 448906-42-1), and Indirubin (CAS RN: 479-41-4) were used instead of FICZ as test samples and the amount of each test sample added to the DMEM medium was appropriately changed.

artemin mRNA = assay: Inhibition of FICZ-induced artemin mRNA expression in HaCaT cells, quantitative PCR; assay type: cell-based, human
Method: First, HaCaT cells (CLI; Catalogue No.: 300493) were suspended in a DMEM medium at the density of 1×10^5 cell/mL, and 100 μL of the thus obtained suspension was added to each well of white 96-well plates (Thermo Fisher Scientific, MA, U.S.A.; Catalogue No.: 136102) so that the number of the cells in each well was 10,000 cells/well. In accordance with the conventional method, the cells were incubated for 24 hours at 37° C. and 5% CO2. Thereafter, the DMEM medium was removed, and 100 μL of a new DMEM medium containing both FICZ at predetermined concentration (500 nM or 5,000 nM) and Fraglide-1 at a predetermined concentration (0 nM or 250 nM). After incubation for 24 hours at 37° C. and 5% CO2, the total RNA was extracted, cDNA was prepared, and quantitative PCR was carrier out using the obtained cDNA in the same manner as described in Experiment 2. In FIG. 7, the results obtained for each sample were shown as a relative value, with the expression level of artemin mRNA in HaCaT cells incubated 24 hours in DMEM medium containing neither FICZ nor Fraglide-1 set to 1.
As described above, Fraglide-1 inhibited production of artemin induced by FICZ. Then, the following experiment was conducted in order to quantitatively evaluated the effect of inhibiting artemin production exerted by Fraglide-1. Briefly, HaCaT cells were treated with FICZ and Fraglide-1 in the same manner as in Experiment 3-1 except that the concentration of FICZ was set to 5,000 nM and the concentration of Fraglide-1 was set to 0 μM, 0.01 μM, 0.1 μM, 1 μM, 10 μM, and 100 µM, and then the total RNA was extracted, cDNA was prepared, and quantitative PCR was carried out. Based on the obtained result, the inhibition rate (Inhibition (%)) of the artemin mRNA expression triggered by FICZ when a given concentration of Fraglide-1 was added to the cell culture medium together with 5,000 nM of FICZ was calculated in accordance with the following formula. […]

Compound | luminescence intensity (reporter protein expression) per unit number of viable cells relative to negative control ([1]; 4 nM FICZ, 24 hours, XRE-NLuc::HaCaT cells) | luminescence intensity from XRE-NLuc::HaCaT cells, dependence on concentration ([1]; FICZ at different concentrations, 24 hours) | EC50 ([1]; XRE-NLuc::HaCaT cells, reporter protein expression) | Present Experiment Maximum Effective concentration Max. Induction ([1]; XRE-NLuc::HaCaT cells, concentration at which reporter expression was maximized) | Inhibition (%) of artemin mRNA expression triggered by FICZ (artemin mRNA; 100 nM (0.1 μM) Fraglide-1, 5,000 nM FICZ) | expression level of artemin mRNA compared to cells without FICZ (artemin mRNA; 250 μM Fraglide-1 plus 500 nM or 5,000 nM FICZ, 24 hours) | inhibition of FICZ-induced expression of artemin, dependence on concentration (artemin mRNA; Fraglide-1 0.01-100 μM, 5,000 nM FICZ)
6-formylindolo[3,2-b] carbazole [FICZ] | about three times higher | increased along with the concentration of FICZ | 12 nM | 0.5 µM |  |  | 
O=C1C=C(c2ccccc2)C(O)O1 (stereo not shown) [Fraglide-1, 5-hydroxy-4-phenyl-2(5H)butenolide] |  |  |  |  | approximately 50% | no increase in the expression level of artemin mRNA was observed | in the concentration dependent manner
